Data: the NIST ThermoML archive (doi:10.1016/j.tca.2014.08.033)

Details: Liquid, DSC

CN1CCC[C@H]1c1cccnc1 [(-)-3-(N-methylpyrrolidino)pyridine]
Details	vapor or sublimation pressure [kPa]
447.7 K	14.96
457.2 K	19.93
471.1 K	29.87
490.6 K	49.83
510.1 K	79.61
520.4 K	99.84
566.4 K	247.84
594.8 K	397.81
609.3 K	500.02
617.8 K	568.97

c1cncc(C2CCCCN2)c1 (configuration not stated) [(.+-.)-anabasine]
Details	vapor or sublimation pressure [kPa]
478 K	14.95
488 K	19.9
502.9 K	29.84
523 K	49.73
543.5 K	79.59
555.1 K	99.57
602.5 K	248.35
631.3 K	398.33
640.7 K	468.91
644.3 K	498.63

CN1C(=O)CC[C@H]1c1cccnc1 [(S)-cotinine]
Details	vapor or sublimation pressure [kPa]
537.7 K	14.95
548.4 K	19.9
564.2 K	29.82
585.6 K	49.74
601.3 K	69.56
607.4 K	79.5
619.2 K	101.32
655.4 K	197.04
669.7 K	247.52

CCCCCCCCCCCCCCCC [hexadecane]
Details	vapor or sublimation pressure [kPa]
486.1 K	14.78
529.6 K	49.76
549.3 K	79.6
560.5 K	101.35
560.9 K	102.04

Cc1ccccc1 [toluene]
Details	vapor or sublimation pressure [kPa]
327.6 K	14.9
360.7 K	49.6
375.8 K	79.3
383.5 K	100.66
384.3 K	102.73
451 K	498.3
451.5 K	499.9
490.4 K	1009.3

O [water]
Details	vapor or sublimation pressure [kPa]
354.7 K	49.7
366.85 K	79.6
373.47 K	100.66
406.69 K	298.53
425.39 K	498.99
